This note sets out measurements from patent US9096559B2, “4-carboxybenzylamino derivatives as histone deacetylase inhibitors” (Merck Sharp & Dohme Corp., priority 2007, dated 2015).

For assay [1], the system named is human cervical cancer (HeLa) and colon carcinoma (HCT116) cells. The experiment in a line: ATP (Vialight) cell proliferation assay, 72 hr. In kind it is cell-based. The conditions noted are these: IP = inflection point, cell line not given, read-out: Prol-72 hr IP (inflection point). How it is done:
The novel compounds of the present invention were tested for their ability to inhibit proliferation of the human cervical cancer (HeLa) and colon carcinoma (HCT116) cells.
In this assay, also referred to as the Vialight Assay, cellular ATP levels are measured as a means of quantifying cellular proliferation. This assay makes use of a bioluminescent method from Cambrex (ViaLight PLUS, cat. #LT07-121). In the presence of ATP, luciferase converts luciferin to oxyluciferin and light. The amount of light produced (emission at 565 nm) is measured and correlates with a relative amount of proliferation. Human cervical cancer (HeLa) or colon carcinoma (HCT116) cells were incubated with vehicle or increasing concentrations of compound for 48, 72 or 96 hours. Cell proliferation was quantified by adding the cell lysis reagent (provided in the Vialight assay kit) directly to culture wells, followed by addition of the ATP-monitoring reagent (containing luciferase/luciferin). The amount of light produced is then measured (emission at 565 nm). The quantity of light produced, as measured by […], is directly proportional to the number of living cells in culture.

Assay [2] addresses histone deacetylase, subtype 1 (HDAC1) (Homo sapiens (Human), UniProt Q13547). The experiment in a line: HDAC1-Flag in vitro deacetylation assay. In kind it is biochemical. The conditions noted are these: IP = inflection point; read-out: HDAC1 IP (inflection point). Here is the method: Novel compounds were tested for their ability to inhibit histone deacetylase, subtype 1 (HDAC1) using an in vitro deacetylation assay. The enzyme source for this assay was an epitope-tagged human HDAC1 complex immuno-purified from stably expressing mammalian cells. The substrate consisted of a commercial product containing an acetylated lysine side chain (BIOMOL Research Laboratories, Inc., Plymouth Meeting, Pa.). Upon deacetylation of the substrate by incubation with the purified HDAC1 complex, a fluorophore is produced that is directly proportional to the level of deacetylation.

Chain of histone deacetylase, subtype 1 (HDAC1) (Q13547 whole entry): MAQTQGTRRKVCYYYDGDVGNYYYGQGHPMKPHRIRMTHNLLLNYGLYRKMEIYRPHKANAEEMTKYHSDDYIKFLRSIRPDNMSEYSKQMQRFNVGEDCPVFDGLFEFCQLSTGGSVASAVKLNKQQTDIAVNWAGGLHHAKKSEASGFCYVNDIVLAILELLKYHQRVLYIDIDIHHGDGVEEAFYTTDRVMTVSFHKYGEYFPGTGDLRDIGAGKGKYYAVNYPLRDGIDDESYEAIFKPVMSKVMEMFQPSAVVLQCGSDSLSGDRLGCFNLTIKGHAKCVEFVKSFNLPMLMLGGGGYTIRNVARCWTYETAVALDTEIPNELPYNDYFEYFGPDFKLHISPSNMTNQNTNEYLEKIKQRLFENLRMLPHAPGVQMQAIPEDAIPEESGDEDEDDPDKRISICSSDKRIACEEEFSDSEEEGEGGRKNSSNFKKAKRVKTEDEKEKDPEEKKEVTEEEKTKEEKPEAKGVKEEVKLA

Regarding `Nc1ccc(-c2ccccc2)cc1NC(=O)c1ccc(CN2C(=O)OC[C@@H]2c2ccccc2)cc1` [Example 118, N-(4-aminobiphenyl-3-yl)-4-{[(4S)-2-oxo-4-phenyl-1,3-oxazolidin-3-yl]methyl}benzamide], the figures for the IC50 in assay [1] and in assay [2] were 1400 nM and 64 nM, respectively.

Turning to `Nc1ccc(-c2ccccc2)cc1NC(=O)c1ccc(CNC(=O)C2CCC2)cc1` [Example 30, N-(4-aminobiphenyl-3-yl)-4-{[(cyclobutylcarbonyl)amino]methyl}benzamide], the IC50 came to 220 nM in assay [1] and 23 nM in assay [2].

On to `CC(C)CNCc1ccc(C(=O)Nc2cc(-c3ccccc3)ccc2N)cc1` [Example 65, N-(4-amino-3-biphenylyl)-4-[(isobutylamino)methyl]benzamide], for which the IC50 in assay [1] came out at 900 nM; in assay [2], 35 nM.

Take `COC(=O)NCc1ccc(C(=O)Nc2cc(-c3ccccc3)ccc2N)cc1` [Example 9, methyl[(4-{[(4-aminobiphenyl-3-yl)amino]carbonyl}phenyl)methyl]carbamate]: the IC50 in assay [1] is 260 nM; in assay [2] it was 17 nM.

For `CCCC(=O)NCc1ccc(C(=O)Nc2cc(-c3ccccc3)ccc2N)cc1` [Example 25, N-(4-aminobiphenyl-3-yl)-4-[(butanoylamino)methyl]benzamide], the IC50 came to 220 nM in assay [1] and 17 nM in assay [2].

As to `Cc1c(CNCc2ccc(C(=O)Nc3cc(-c4ccccc4)ccc3N)cc2)cnn1C` [Example 63, N-(4-amino-3-biphenylyl)-4-({[(1,5-dimethyl-1H-pyrazol-4-yl)methyl]amino}methyl)benzamide], the IC50 in assay [1] is 670 nM; in assay [2] it was 13 nM.

With `CC(C)CC(=O)NCc1ccc(C(=O)Nc2cc(-c3cccs3)ccc2N)cc1` [Example 42, N-[2-amino-5-(2-thienyl)phenyl]-4-{[(3-methylbutanoyl)amino]methyl}benzamide], the IC50 was 120 nM in assay [1] and 15 nM in assay [2].

`CNCCCN(C)Cc1ccc(C(=O)Nc2cc(-c3ccccc3)ccc2N)cc1` [Example 64, N-(4-amino-3-biphenylyl)-4-({methyl[3-(methylamino)propyl]amino}methyl)benzamide]: the figures for the IC50 in assay [1] and in assay [2] were 540 nM and 18 nM, respectively.

As for `Nc1ccc(-c2ccccc2)cc1NC(=O)c1ccc(CNC(=O)c2ccccc2)cc1` [Example 35, N-(4-aminobiphenyl-3-yl)-4-{[(phenylcarbonyl)amino]methyl}benzamide], the IC50 in assay [1] was 160 nM; in assay [2], 19 nM.

With `CC(C)COC(=O)NCc1ccc(C(=O)Nc2cc(-c3ccccc3)ccc2N)cc1` [Example 13, 2-methylpropyl[(4-{[(4-aminobiphenyl-3-yl)amino]carbonyl}phenyl)methyl]carbamate], the figures for the IC50 in assay [1] and in assay [2] were 390 nM and 45 nM, respectively.

As for `CC(C)(C)C(=O)NCc1ccc(C(=O)Nc2cc(-c3ccccc3)ccc2N)cc1` [Example 28, N-(4-aminobiphenyl-3-yl)-4-{[(2,2-dimethylpropanoyl)amino]methyl}benzamide], the results for the IC50 in assay [1] and in assay [2] were 260 nM and 25 nM, respectively.

Turning to `Nc1ccc(-c2cccs2)cc1NC(=O)c1ccc(CNC(=O)Cc2ccccc2)cc1` [Example 47, N-[2-amino-5-(2-thienyl)phenyl]-4-{[(phenylacetyl)amino]methyl}benzamide], the IC50 in assay [1] was 150 nM; in assay [2], 16 nM.

For `CC(C)C(=O)NCc1ccc(C(=O)Nc2cc(-c3cccs3)ccc2N)cc1` [Example 40, N-[2-amino-5-(2-thienyl)phenyl]-4-{[(2-methylpropanoyl)amino]methyl}benzamide], the results for the IC50 in assay [1] and in assay [2] were 150 nM and 16 nM, respectively.

Take `Nc1ccc(-c2ccccc2)cc1NC(=O)c1ccc(CNC(=O)C2CCCCC2)cc1` [Example 32, N-(4-aminobiphenyl-3-yl)-4-{[(cyclohexylcarbonyl)amino]methyl}benzamide]: the values for the IC50 in assay [1] and in assay [2] were 340 nM and 42 nM, respectively.

With `Nc1ccc(-c2ccccc2)cc1NC(=O)c1ccc(CNC(=O)CCc2ccccc2)cc1` [Example 31, N-(4-aminobiphenyl-3-yl)-4-{[(3-phenylpropanoyl)amino]methyl}benzamide], the IC50 amounted to 420 nM in assay [1] and 14 nM in assay [2].

As for `Nc1ccc(-c2ccccc2)cc1NC(=O)c1ccc(CNC(=O)[C@@H]2CCCN2)cc1` [Example 58, (2S)-N-(4-{[(4-aminobiphenyl-3-yl)amino]carbonyl}benzyl)pyrrolidine-2-carboxamide], the IC50 was 380 nM in assay [1] and 24 nM in assay [2].

In the case of `Nc1ccc(-c2ccccc2)cc1NC(=O)c1ccc(CNc2ccncc2)cc1` [Example 61, N-(4-amino-3-biphenylyl)-4-[(4-pyridinylamino)methyl]benzamide], the IC50 stood at 1700 nM in assay [1] and 10 nM in assay [2].

Regarding `CCCOC(=O)NCc1ccc(C(=O)Nc2cc(-c3cccs3)ccc2N)cc1` [Example 19, propyl {[4-({[2-amino-5-(2-thienyl)phenyl]amino}carbonyl)phenyl]methyl}carbamate], the IC50 in assay [1] came out at 110 nM; in assay [2] it was 19 nM.

`CCCC(=O)NCc1ccc(C(=O)Nc2cc(-c3cccs3)ccc2N)cc1` [Example 38, N-[2-amino-5-(2-thienyl)phenyl]-4-[(butanoylamino)methyl]benzamide]: the results for the IC50 in assay [1] and in assay [2] were 150 nM and 12 nM, respectively.

Take `Nc1ccc(-c2ccccc2)cc1NC(=O)c1ccc(CNC(=O)Cc2ccccc2)cc1` [Example 34, N-(4-aminobiphenyl-3-yl)-4-{[(phenylacetyl)amino]methyl}benzamide]: the figures for the IC50 in assay [1] and in assay [2] were 310 nM and 72 nM, respectively.

`CCC(=O)NCc1ccc(C(=O)Nc2cc(-c3cccs3)ccc2N)cc1` [Example 37, N-[2-amino-5-(2-thienyl)phenyl]-4-[(propanoylamino)methyl]benzamide]: the IC50 was found to be 130 nM in assay [1] and 12 nM in assay [2].

For the compound `CC(C)(C)C(=O)NCc1ccc(C(=O)Nc2cc(-c3cccs3)ccc2N)cc1` [Example 41, N-[2-amino-5-(2-thienyl)phenyl]-4-{[(2,2-dimethylpropanoyl)amino]methyl}benzamide], the IC50 came out at 170 nM in assay [1] and 16 nM in assay [2].

As for `Nc1ccc(-c2ccsc2)cc1NC(=O)c1ccc(CNC(=O)OCc2cccnc2)cc1` [Example 4, pyridin-3-ylmethyl {[4-({[2-amino-5-(3-thienyl)phenyl]amino}carbonyl)phenyl]methyl}carbamate], the IC50 in assay [1] came to 370 nM; in assay [2], 5.8 nM.

On to `Nc1ccc(-c2ccccc2)cc1NC(=O)c1ccc(CNC(=O)CCc2cccnc2)cc1` [Example 53, N-(4-aminobiphenyl-3-yl)-4-{[(3-pyridin-3-ylpropanoyl)amino]methyl}benzamide], for which the IC50 worked out at 340 nM in assay [1] and 16 nM in assay [2].

For the compound `O=C(NCc1ccc(C(=O)Nc2cc(-c3cccnc3)ccc2O)cc1)OCc1cccnc1` [Example 6, pyridin-3-ylmethyl[(4-{[(2-hydroxy-5-pyridin-3-ylphenyl)amino]carbonyl}phenyl)methyl]carbamate], the IC50 came to 1000 nM in assay [1] and 16 nM in assay [2].

As to `COC(=O)NCc1ccc(C(=O)Nc2cc(-c3cccs3)ccc2N)cc1` [Example 17, methyl {[4-({[2-amino-5-(2-thienyl)phenyl]amino}carbonyl)phenyl]methyl}carbamate], the IC50 in assay [1] turned out to be 96 nM; in assay [2], 6 nM.

For the compound `CC(C)COC(=O)NCc1ccc(C(=O)Nc2cc(-c3cccs3)ccc2N)cc1` [Example 20, 2-methylpropyl {[4-({[2-amino-5-(2-thienyl)phenyl]amino}carbonyl)phenyl]methyl}carbamate], the IC50 in assay [1] is 300 nM; in assay [2], 31 nM.

For `CC(C)OC(=O)NCc1ccc(C(=O)Nc2cc(-c3cccs3)ccc2N)cc1` [Example 18, 1-methylethyl {[4-({[2-amino-5-(2-thienyl)phenyl]amino}carbonyl)phenyl]methyl}carbamate], the IC50 is 120 nM in assay [1] and 19 nM in assay [2].

In the case of `Nc1ccc(-c2cccs2)cc1NC(=O)c1ccc(CNC(=O)C2CC2)cc1` [Example 39, N-[2-amino-5-(2-thienyl)phenyl]-4-{[(cyclopropylcarbonyl)amino]methyl}benzamide], the IC50 is 96 nM in assay [1] and 15 nM in assay [2].

In the case of `CCC(=O)NCc1ccc(C(=O)Nc2cc(-c3ccccc3)ccc2N)cc1` [Example 24, N-(4-aminobiphenyl-3-yl)-4-[(propanoylamino)methyl]benzamide], the IC50 came to 120 nM in assay [1] and 17 nM in assay [2].

With `CN(Cc1ccc(C(=O)Nc2cc(-c3ccccc3)ccc2N)cc1)c1ccncc1` [Example 62, N-(4-amino-3-biphenylyl)-4-{[methyl(4-pyridinyl)amino]methyl}benzamide], the figures for the IC50 in assay [1] and in assay [2] were 3600 nM and 10 nM, respectively.
